Tested on: 362531-283-R-J2-PDC complex spheroid viability
Assay: Anticancer human tumor 362531-283-R-J2-PDC patient-derived colon adenocarcinoma cell line growth inhibition [RAS]
Settings: for IC50: curve of first compound; for viability, T/C: stronger effect = lower value; active = viability on the fitted dose curve at most 10% of control; inactive = the rest
Text: RAS pathway inhibitors in Combinations in Complex Spheroids
A high-throughput screen of multi-cell type tumor spheroids was designed to identify active combinations of RAS pathway inhibitors and targeted small molecules. Complex spheroids include a stromal component modeled by human endothelial cells (HUVEC) and fibroblasts modeled by human mesenchymal stem cells (MSCs). The concentration ranges selected for each drug and investigational agent were based upon clinically achievable concentrations if the clinical Cmax of the agent was known.
Compounds. The drugs and investigational agents: abemaciclib (NSC768073), cobimetinib (NSC768068), divarasib (GDC6063, NSC841802), docetaxel (NSC628503), GDC-1971 (RLY-1971, NSC841576), gemcitabine (NSC613327), inavolisib (NSC800729), ipatasertib (NSC767898), KB-0742 (NSC834161), MRTX-1133 (NSC836407), osimertinib (NSC779217), RMC-4630 (NSC839698), RMC-6236 (NSC851965), RMC-6291 (NSC852671), Ro-3306 (NSC812927), sapanisertib (NSC764658), SN-38 (NSC673596), staurosporine (NSC755774), SY5609 (NSC837396), and tovorafenib (DAY101, NSC766906), were obtained from the National Cancer Institute (NCI) Developmental Therapeutics Program Chemical Repository. The FDA-approved anticancer drug set is available from the NCI Developmental Therapeutics Program. […] The stock solutions were prepared in dimethyl sulfoxide (DMSO, Sigma-Aldrich, St. Louis, MO, cat. D2650) at 800-fold the tested concentration and stored at -70 degrees C prior to their use. All drugs and investigational agents were tested over a range starting from a high concentration at or near the clinical Cmax and decreasing in half-log increments. If the clinical Cmax for an agent had not been determined, the highest concentration tested was 10 microM.
Cell Culture. All cells were maintained in an incubator at 37 degrees C and 5% CO2 with 95% humidity. The PDC lines were cultured according to standard operating procedures established by the NCI PDMR. All PDCs were thawed and cultured in Matrigel-coated flasks prepared with a working solution of 1X Ham's F-12 nutrient mix, without supplementation (Invitrogen, Waltham, MA, cat. 11765054), 100 U/mL penicillin-streptomycin (Invitrogen, cat. 15140122), and 2.5% Matrigel (Corning Inc., Corning, NY, cat. 354248) for the first three passages. The 362531-283-R-J2-PDC and 782815-120-R-J1-PDC lines were cultured in 6C/Colon 1B media, which includes advanced DMEM/F-12 (Thermo Fisher Scientific, cat. 12634028), 10 mM HEPES (Thermo Fisher Scientific, cat. 15630080), 1X GlutaMAX supplement (Thermo Fisher Scientific, cat. 35050061), 0.1 mg/mL primocin (InvivoGen, San Diego, CA, cat. ant-pm-2), 10% defined fetal bovine serum, heat inactivated (HyClone Laboratories Inc., Logan, UT, cat. SH30070.03HI), 50% L-WRN conditioned media (ATCC, cat. CRL-3276), 1.25 mM N-Acetyl-L-cysteine (Sigma-Aldrich, cat. A9165), 10 mM nicotinamide (Sigma-Aldrich, cat. N0636), 1X B-27 supplement (Thermo Fisher Scientific, cat. 17504044), 1X N-2 supplement (Thermo Fisher Scientific, cat. 17502048), 50 ng/mL human EGF (Thermo Fisher Scientific, cat. PHG0311), and 10 microM Y-27632 dihydrochloride (Tocris Bioscience, cat. 1254). The K12877-001-R-J1-PDC line was cultured in 6I media, which includes all 6C/Colon 1B media plus 10 ng/mL human FGF-10 (PeproTech, cat. 100-26), 1 ng/mL human FGF-2 (PeproTech, cat. 100-18B), 1 µM prostaglandin E2 (Tocris Bioscience, cat. 2296), […] hydrocortisone (Sigma-Aldrich, cat. H4001), and […] bovine insulin (Sigma-Aldrich, cat. I6634). The K86415-001-R-J1-PDC line was cultured in 6D media, which includes all 6C/Colon 1B media components minus the L-WRN conditioned media. The 485176-168-R4-J1-PDC was cultured in PANC media, which includes all 6C/Colon 1B media plus 100 ng/mL human FGF-10 (PeproTech, cat. 100-26), 500 nM SB-431542 (Selleckchem, cat. S1067), and 10 nM gastrin (Tocris Bioscience, cat. 3006). […]
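Also: spheroids exposed to the agents for 7 days before readout.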
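For viability, T/C in this document: luminescence viability as percent of DMSO vehicle control wells.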

CC(C)NCC(C(=O)N1CCN(c2ncnc3c2C(C)CC3O)CC1)c1ccc(Cl)cc1 (centres undefined) + C#Cc1c(F)ccc2cc(O)cc(-c3ncc4c(N5CC6CCC(C5)N6)nc(OCC56CCCN5CC(F)C6)nc4c3F)c12
> 10000 nM: IC50 (second compound 0.0316 µM) | IC50 (second compound 0.1 µM) | IC50 (second compound 0.316 µM) | IC50 (second compound 1 µM) | IC50 (second compound 3.16 µM)
< 31.6 nM: IC50 (second compound 10 µM)
inactive: viability, T/C (second compound 0.0316 µM, first compound 0.0316 µM) 98.4% | viability, T/C (second compound 0.0316 µM, first compound 0.1 µM) 100% | viability, T/C (second compound 0.0316 µM, first compound 0.316 µM) 89.4% | viability, T/C (second compound 0.0316 µM, first compound 1 µM) 102% | viability, T/C (second compound 0.0316 µM, first compound 3.16 µM) 96.7% | viability, T/C (second compound 0.0316 µM, first compound 10 µM) 87.5% | viability, T/C (second compound 0.1 µM, first compound 0.0316 µM) 84.4% | viability, T/C (second compound 0.1 µM, first compound 0.1 µM) 105% | viability, T/C (second compound 0.1 µM, first compound 0.316 µM) 94.9% | viability, T/C (second compound 0.1 µM, first compound 1 µM) 96.6% | viability, T/C (second compound 0.1 µM, first compound 3.16 µM) 102% | viability, T/C (second compound 0.1 µM, first compound 10 µM) 95% | viability, T/C (second compound 0.316 µM, first compound 0.0316 µM) 94% | viability, T/C (second compound 0.316 µM, first compound 0.1 µM) 95.5% | viability, T/C (second compound 0.316 µM, first compound 0.316 µM) 92.6% | viability, T/C (second compound 0.316 µM, first compound 1 µM) 82.4% | viability, T/C (second compound 0.316 µM, first compound 3.16 µM) 83.7% | viability, T/C (second compound 0.316 µM, first compound 10 µM) 65.1% | viability, T/C (second compound 1 µM, first compound 0.0316 µM) 79.9% | viability, T/C (second compound 1 µM, first compound 0.1 µM) 88.1% | viability, T/C (second compound 1 µM, first compound 0.316 µM) 78.3% | viability, T/C (second compound 1 µM, first compound 1 µM) 81% | viability, T/C (second compound 1 µM, first compound 3.16 µM) 81.1% | viability, T/C (second compound 1 µM, first compound 10 µM) 75.5% | viability, T/C (second compound 3.16 µM, first compound 0.0316 µM) 61.5% | viability, T/C (second compound 3.16 µM, first compound 0.1 µM) 73.6% | viability, T/C (second compound 3.16 µM, first compound 0.316 µM) 66.9% | viability, T/C (second compound 3.16 µM, first compound 1 µM) 87% | viability, T/C (second compound 3.16 µM, first compound 3.16 µM) 63% | viability, T/C (second compound 3.16 µM, first compound 10 µM) 53.2% | viability, T/C (second compound 10 µM, first compound 0.0316 µM) 43.3% | viability, T/C (second compound 10 µM, first compound 0.1 µM) 39.6% | viability, T/C (second compound 10 µM, first compound 0.316 µM) 43.9% | viability, T/C (second compound 10 µM, first compound 1 µM) 47% | viability, T/C (second compound 10 µM, first compound 3.16 µM) 50.6% | viability, T/C (second compound 10 µM, first compound 10 µM) 39.3%

CC(C)n1nc(-c2ccc3oc(N)nc3c2)c2c(N)ncnc21 + CCn1c(-c2cc(N3CCN(C)CC3)cnc2C(C)OC)c2c3cc(ccc31)-c1csc(n1)CC(NC(=O)C1CC1C)C(=O)N1CCCC(N1)C(=O)OCC(C)(C)C2
48.1 nM: IC50 (second compound 0.00949 µM)
inactive: viability, T/C (second compound 0.000949 µM, first compound 0.000316 µM) 88.2% | viability, T/C (second compound 0.000949 µM, first compound 0.001 µM) 97.4% | viability, T/C (second compound 0.000949 µM, first compound 0.00316 µM) 98.9% | viability, T/C (second compound 0.000949 µM, first compound 0.01 µM) 106% | viability, T/C (second compound 0.000949 µM, first compound 0.0316 µM) 62.9% | viability, T/C (second compound 0.000949 µM, first compound 0.1 µM) 41.2% | viability, T/C (second compound 0.003 µM, first compound 0.000316 µM) 99.4% | viability, T/C (second compound 0.003 µM, first compound 0.001 µM) 102% | viability, T/C (second compound 0.003 µM, first compound 0.00316 µM) 102% | viability, T/C (second compound 0.003 µM, first compound 0.01 µM) 100% | viability, T/C (second compound 0.003 µM, first compound 0.0316 µM) 69.7% | viability, T/C (second compound 0.003 µM, first compound 0.1 µM) 40% | viability, T/C (second compound 0.00949 µM, first compound 0.000316 µM) 102% | viability, T/C (second compound 0.00949 µM, first compound 0.001 µM) 111% | viability, T/C (second compound 0.00949 µM, first compound 0.00316 µM) 93.6% | viability, T/C (second compound 0.00949 µM, first compound 0.01 µM) 94.7% | viability, T/C (second compound 0.00949 µM, first compound 0.0316 µM) 57.6% | viability, T/C (second compound 0.00949 µM, first compound 0.1 µM) 35.9% | viability, T/C (second compound 0.03 µM, first compound 0.000316 µM) 89.5% | viability, T/C (second compound 0.03 µM, first compound 0.001 µM) 86.5% | viability, T/C (second compound 0.03 µM, first compound 0.00316 µM) 89.6% | viability, T/C (second compound 0.03 µM, first compound 0.01 µM) 92% | viability, T/C (second compound 0.03 µM, first compound 0.0316 µM) 54% | viability, T/C (second compound 0.03 µM, first compound 0.1 µM) 36.8% | viability, T/C (second compound 0.0949 µM, first compound 0.000316 µM) 82.2% | viability, T/C (second compound 0.0949 µM, first compound 0.001 µM) 84.1% | viability, T/C (second compound 0.0949 µM, first compound 0.00316 µM) 77.1% | viability, T/C (second compound 0.0949 µM, first compound 0.01 µM) 63.1% | viability, T/C (second compound 0.0949 µM, first compound 0.0316 µM) 39% | viability, T/C (second compound 0.0949 µM, first compound 0.1 µM) 35% | viability, T/C (second compound 0.3 µM, first compound 0.000316 µM) 41.6% | viability, T/C (second compound 0.3 µM, first compound 0.001 µM) 45.7% | viability, T/C (second compound 0.3 µM, first compound 0.00316 µM) 37% | viability, T/C (second compound 0.3 µM, first compound 0.01 µM) 21.1% | viability, T/C (second compound 0.3 µM, first compound 0.0316 µM) 21.8% | viability, T/C (second compound 0.3 µM, first compound 0.1 µM) 17.1%
< 0.316 nM: IC50 (second compound 0.3 µM)
67.9 nM: IC50 (second compound 0.003 µM)
18.8 nM: IC50 (second compound 0.0949 µM)
62.7 nM: IC50 (second compound 0.000949 µM)
41.3 nM: IC50 (second compound 0.03 µM)

Source: PubChem BioAssay AID2060909 (Molecular Pharmacology Branch, DTP, NCI, 2025)
